This note sets out measurements from ChEMBL document CHEMBL3425501, “Synthesis and Evaluation of Quinazolines as Inhibitors of the Bacterial Cell Division Protein FtsZ” (ACS Med Chem Lett, 2015).

Activity calls are given as the source filed them. The rule behind the calls is not given here.

Assay [1] deals with T1, Cell division protein FtsZ (Bacillus subtilis (strain 168), UniProt P17865).
T1 sequence (P17865 whole entry): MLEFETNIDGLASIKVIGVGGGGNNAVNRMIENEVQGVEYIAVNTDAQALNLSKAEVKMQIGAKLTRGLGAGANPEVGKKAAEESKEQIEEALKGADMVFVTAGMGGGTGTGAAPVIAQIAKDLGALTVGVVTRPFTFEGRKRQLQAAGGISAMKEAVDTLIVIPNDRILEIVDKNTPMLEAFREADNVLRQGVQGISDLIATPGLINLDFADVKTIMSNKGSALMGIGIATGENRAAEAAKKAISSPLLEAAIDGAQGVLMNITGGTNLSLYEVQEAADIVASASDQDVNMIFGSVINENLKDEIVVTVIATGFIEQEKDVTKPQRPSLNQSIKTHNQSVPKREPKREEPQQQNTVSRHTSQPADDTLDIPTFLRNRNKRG
As to the kind of experiment: Inhibition of Bacillus subtilis FtsZ GTPase activity after 5 mins by enzyme-coupled inhibition assay.

In assay [2] the target is T2, Cell division protein FtsZ (Escherichia coli K-12, UniProt P0A9A6).
T2 sequence (P0A9A6 whole entry): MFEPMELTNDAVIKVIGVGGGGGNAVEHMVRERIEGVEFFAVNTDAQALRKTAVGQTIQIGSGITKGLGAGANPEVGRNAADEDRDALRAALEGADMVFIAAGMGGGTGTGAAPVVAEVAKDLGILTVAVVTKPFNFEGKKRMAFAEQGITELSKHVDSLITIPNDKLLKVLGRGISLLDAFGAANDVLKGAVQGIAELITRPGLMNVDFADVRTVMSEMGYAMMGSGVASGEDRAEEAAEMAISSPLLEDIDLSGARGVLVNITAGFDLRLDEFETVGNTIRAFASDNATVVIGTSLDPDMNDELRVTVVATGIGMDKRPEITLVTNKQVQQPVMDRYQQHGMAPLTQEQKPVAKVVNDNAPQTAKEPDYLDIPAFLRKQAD
As to the kind of experiment: Inhibition of Escherichia coli FtsZ GTPase activity after 5 mins by enzyme-coupled inhibition assay.

The target of assay [3] is T3, Cell division protein FtsZ (Staphylococcus aureus, UniProt P0A031).
T3 sequence (P0A031 whole entry): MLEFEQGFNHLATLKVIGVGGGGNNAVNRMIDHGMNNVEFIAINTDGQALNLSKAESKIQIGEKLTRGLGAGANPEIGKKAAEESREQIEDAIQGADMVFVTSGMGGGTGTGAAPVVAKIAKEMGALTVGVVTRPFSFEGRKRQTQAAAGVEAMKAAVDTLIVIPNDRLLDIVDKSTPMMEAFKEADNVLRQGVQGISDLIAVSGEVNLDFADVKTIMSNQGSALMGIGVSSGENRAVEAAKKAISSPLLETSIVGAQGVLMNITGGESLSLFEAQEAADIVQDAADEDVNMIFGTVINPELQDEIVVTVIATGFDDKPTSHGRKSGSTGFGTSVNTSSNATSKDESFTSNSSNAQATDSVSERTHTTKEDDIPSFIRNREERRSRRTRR
As to the kind of experiment: Activation of Staphylococcus aureus FtsZ GTPase activity.

A short description of assay [4]: Inhibition of bacterial FtsZ GTPase activity (unknown origin).
Assay [5] deals with T4, Cell division protein FtsZ (Escherichia coli K-12) (UniProt P0A9A6).
T4 sequence (whole entry): T2 sequence (P0A9A6 whole entry)
As to the kind of experiment: Competitive inhibition of Escherichia coli FtsZ GTPase activity after 5 mins by enzyme-coupled inhibition assay in presence of 10 to 1250 uM GTP.

A word on the IC50: it is the point on the concentration scale where inhibition reaches its midpoint. A lower IC50 goes with greater potency in that assay. As a reminder, the EC50 is the concentration at which the effect is half-maximal.

As to `Cc1ccc2nc(NCc3ccccc3)nc(NCCN(C)C)c2c1`, the IC50 in assay [1] was above 128 µM.
As to `Cc1ccc2nc(-c3cc4ccccc4o3)nc(NCCN(C)C)c2c1`, the IC50 in assay [1] is above 128 µM.
In the case of `Cc1ccc2nc(NCc3ccc(Cl)cc3)nc(NCCN(C)C)c2c1`, the IC50 in assay [1] is above 128 µM.
`CN(C)CCNc1nc(/C=C/c2ccc(Cl)cc2)nc2cc(C(F)(F)F)ccc12` gave an IC50 in assay [2] above 128 µM.
On the same count and under the same terms, the result for `CN(C)CCNc1nc(/C=C/c2ccc(Cl)cc2)nc2ccc(-c3cccs3)cc12` reads above 128 µM; that for `CN(C)CCNc1nc(/C=C/c2ccc(I)cc2)nc2cc3ccccc3cc12`, 24 µM; that for `CN(C)CCNc1nc(/C=C/c2ccc(N=[N+]=[N-])cc2)nc2cc3ccccc3cc12`, 14 µM.
In assay [1], `COc1ccc(-c2nc(NCCN(C)C)c3cc(C)ccc3n2)cc1` gave an IC50 above 128 µM.
In the case of `Cc1ccc2nc(-c3ccc4ccccc4c3)nc(NCCN(C)C)c2c1`, the IC50 in assay [1] is above 128 µM.
Take `C[N+](C)(C)CCNc1nc(/C=C/c2ccc(Cl)cc2)nc2cc3ccccc3cc12`: the IC50 in assay [2] turned out to be 52 µM.
`Cc1ccc2nc(/C=C/c3ccc(Br)cc3)nc(NCCN(C)C)c2c1`: the IC50 in assay [1] is above 128 µM.
Molecule `CN(C)CCNc1nc(/C=C/c2ccc(Cl)cc2)nc2ccccc12` had an IC50 in assay [2] above 128 µM.
In turn, `Cc1ccc2nc(/C=C/c3ccc(I)cc3)nc(NCCN(C)C)c2c1` had an IC50 in assay [1] above 128 µM.
`Cc1ccc2nc(/C=C/c3ccc(Cl)cc3)nc(NCCN)c2c1` came in with a half-maximal inhibitory concentration (IC50) in assay [2] of 27 µM.
On the same count and under the same terms, with `Cc1ccc2nc(/C=C/c3ccc(Cl)cc3)nc(NCCNC(=O)OC(C)(C)C)c2c1` the figure was above 128 µM.
The same measure, in the same setting: with `NCCNc1nc(/C=C/c2ccc(Cl)cc2)nc2cc3ccccc3cc12` the figure was 9 µM.
Still for that read-out and setting: with `Cc1ccc2nc(C(=O)NCc3ccc(Cl)cc3)nc(NCCN(C)C)c2c1` the figure was above 128 µM; with `CN(C)CCNc1nc(/C=C/c2ccc(Cl)cc2)nc2ccc(I)cc12`, 95 µM.
In the case of `CN(C)CCOc1nc(/C=C/c2ccc(Cl)cc2)nc2cc3ccccc3cc12`, in assay [2], half-maximal inhibition (IC50) was put at 26 µM. Compared with the last molecule, the IC50 is about 3.7-fold lower.
As for `NC(=O)c1c(F)ccc(OCc2nc3cc(Cl)cnc3s2)c1F`, the EC50 in assay [3] worked out at 4 µM.
Turning to `CC(C)(C)OC(=O)CNc1nc(/C=C/c2ccc(Cl)cc2)nc2cc3ccccc3cc12`, the IC50 in assay [2] was above 128 µM.
Regarding `COCCNc1nc(/C=C/c2ccc(Cl)cc2)nc2ccc(C)cc12`, in assay [2], the IC50 is above 128 µM.
Still for that read-out and setting: the result for `CN(C)CCNc1nc(/C=C/c2ccc(Cl)cc2)nc2ccc(-c3ccncc3)cc12` reads 30 µM; that for `COc1cc2nc(/C=C/c3ccc(Cl)cc3)nc(NCCN(C)C)c2cc1OC`, 100 µM; that for `Cc1ccc2nc(/C=C/c3ccc(Cl)cc3)nc(NCCN(C)C)c2c1`, 24 µM.
Still for that read-out and setting: the result for `CN(C)CCNc1nc(/C=C/c2ccc(Cl)cc2)nc2ccc(-c3ccccc3)cc12` reads 28 µM.
Molecule `Cc1ccc2nc(-c3ccc(Cl)cc3)nc(NCCN(C)C)c2c1` gave an IC50 in assay [1] above 128 µM.
In turn, `CC(=O)NCCNc1nc(/C=C/c2ccc(Cl)cc2)nc2cc3ccccc3cc12` returned an IC50 in assay [2] above 128 µM.
Same read-out and setting: the result for `CSCCNc1nc(/C=C/c2ccc(Cl)cc2)nc2cc3ccccc3cc12` reads above 128 µM.
As for `COCCCNc1nc(/C=C/c2ccc(Cl)cc2)nc2cc3ccccc3cc12`, in assay [2], the IC50 is above 128 µM.
Molecule `CN(C)CCNc1nc(/C=C/c2ccc(Cl)cc2)nc2cc3ccccc3cc12` registered an IC50 in assay [4] of 12 µM.
In assay [2], `CC(C)(C)OC(=O)NCCNc1nc(/C=C/c2ccc(Cl)cc2)nc2cc3ccccc3cc12` displayed an IC50 above 128 µM.
On the same count and under the same terms, the result for `Cc1ccc2nc(C(=O)Nc3ccc(Cl)cc3)nc(NCCN)c2c1` reads above 128 µM.
Regarding `CN(C)CCCNc1nc(/C=C/c2ccc(Cl)cc2)nc2cc3ccccc3cc12`, inhibition in assay [2] was half-maximal at 65 µM (IC50).
In assay [1], `Cc1ccc2nc(/C=C/c3ccc(C(F)(F)F)cc3)nc(NCCN(C)C)c2c1` yielded a 50% inhibitory concentration (IC50) above 128 µM.
For the molecule `CCN(CC)CCNc1nc(/C=C/c2ccc(Cl)cc2)nc2cc3ccccc3cc12`, the inhibition result in assay [5] is “inactive”. Besides, the IC50 in assay [4] amounted to 24 µM.
In assay [2], `CN(C)CCNc1nc(/C=C/c2ccc(Cl)cc2)nc2ccc(C3=CCCCC3)cc12` gave an IC50 of 49 µM.
`Cc1cccc2nc(/C=C/c3ccc(Cl)cc3)nc(NCCN(C)C)c12` returned an IC50 in assay [2] above 128 µM.
With `CN(C)CCNc1nc(/C=C/c2ccc(Cl)cc2)nc2ccc(Br)cc12`, the concentration for half-maximal inhibition (IC50) in assay [2] came to 30 µM.
The molecule `Cc1ccc2nc(-c3cccs3)nc(NCCN(C)C)c2c1` returned an IC50 in assay [1] above 128 µM.
Still for that read-out and setting: the result for `Cc1ccc2nc(N)nc(NCCN(C)C)c2c1` reads above 128 µM.
In assay [2], `CN(C)CCNc1nc(/C=C/c2ccc(Cl)cc2)nc2ccc(-c3ccc4ccccc4c3)cc12` had an IC50 of 58 µM.
With `CN(C)CCNc1nc(/C=C/c2ccc(Cl)cc2)nc2ccc(C(=O)c3ccccc3)cc12`, the IC50 in assay [2] stood at 85 µM.
Still for that read-out and setting: the result for `COCCNc1nc(/C=C/c2ccc(Cl)cc2)nc2cc3ccccc3cc12` reads above 128 µM.
For the molecule `Cc1ccc2nc(/C=C/c3ccc(C(C)(C)C)cc3)nc(NCCN(C)C)c2c1`, in assay [1], the IC50 is above 128 µM.
